Assay results from ChEMBL document CHEMBL1201862, “PubChem BioAssay data set” (2004).
Activity calls are given as the source filed them.

Key:
H9c2 = test: cells; format: functional, cell-based; details: Rattus norvegicus, H9c2, Myocardium;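 further: confirmatory concentration-response retest of ultra-high-throughput screening hits for modulation of myocardial damage; cell death induced by hydrogen peroxide oxidative stress; compound pretreatment for 60 min then peroxide exposure for 2 h; potency is for protecting the cells against peroxide damage rather than for killing them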
[1] = cytotoxicity toward DRD oncogenic fibroblasts, dose response, cell-based, non-viral oncogenic, luminescence (AID 1934); format: functional; details: Homo sapiens
BJ [2] = test: cytotoxicity toward BJ-TERT fibroblasts, dose response, cell-based, RAS-independent, luminescence (AID 1933); format: functional; details: Homo sapiens
BJ [3] = test: cytotoxicity toward BJ-TERT-LT-ST fibroblasts, dose response, cell-based, RAS-independent, luminescence (AID 1935); format: functional; details: Homo sapiens;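 further: BJ fibroblasts immortalized with TERT plus LT and ST oncogenes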
BJ [4] = test: cells; format: functional, cell-based; details: Homo sapiens
Protein skinhead-1 = biological target: T1, Protein skinhead-1 (Caenorhabditis elegans, UniProt P34707); format: functional
T1 sequence (P34707 whole entry): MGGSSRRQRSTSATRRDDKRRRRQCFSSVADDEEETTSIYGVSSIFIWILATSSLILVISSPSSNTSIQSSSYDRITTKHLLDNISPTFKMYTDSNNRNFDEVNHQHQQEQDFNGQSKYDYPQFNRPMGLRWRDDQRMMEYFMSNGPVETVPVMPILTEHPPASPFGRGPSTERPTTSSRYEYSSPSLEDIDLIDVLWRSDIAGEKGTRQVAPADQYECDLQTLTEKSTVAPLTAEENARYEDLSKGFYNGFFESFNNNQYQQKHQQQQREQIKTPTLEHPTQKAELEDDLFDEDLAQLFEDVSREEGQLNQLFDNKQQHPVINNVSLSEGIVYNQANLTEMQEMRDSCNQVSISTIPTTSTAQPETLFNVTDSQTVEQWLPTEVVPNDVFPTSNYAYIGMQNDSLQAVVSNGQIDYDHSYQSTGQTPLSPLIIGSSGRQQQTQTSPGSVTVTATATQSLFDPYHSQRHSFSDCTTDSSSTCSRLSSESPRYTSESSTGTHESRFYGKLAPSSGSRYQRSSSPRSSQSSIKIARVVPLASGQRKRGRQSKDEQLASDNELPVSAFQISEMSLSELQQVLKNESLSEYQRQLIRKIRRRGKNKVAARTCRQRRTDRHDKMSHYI

[5] = inhibitors of SNCA 5'UTR-driven reporter translation, confirmation, H4 neuroglioma cells, luminescence (AID 1988); format: functional, cell-based
[6] = Luminescence Cell-Based Dose Response HTS to Identify Inhibitors of 5'UTR Stem-Loop Driven Prion Protein mRNA Translation in H4 Neuroglioblastoma Cells. [Related pubchem assays: 1827 (Project Summary), 1813 (Primary HTS)]; format: functional
[7] = inhibitors of firefly luciferase expression or activity, dose response, H4 neuroglioma cells, luminescence (AID 1990); format: functional, cell-based
[8] = biological target: Heat shock protein HSP 90-alpha (Homo sapiens, UniProt P07900); format: functional, organism-based
[9] = biological target: Luciferin 4-monooxygenase (Photinus pyralis, UniProt P08659); test: firefly luciferase enzyme inhibitors, dose response, biochemical, luminescence (AID 1891)
INS1 = test: beta cell apoptosis inhibitors, cytokine rescue, dose response, luminescence, retest (AID 449756); format: functional, cell-based; details: Rattus norvegicus;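 further: cell death triggered by IL-1 beta plus TNF-alpha plus IFN-gamma mixture; protective hits raise ATP signal compared with cytokine alone wells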
[10] = Luminescence Cell-Based Dose Confirmation HTS to Identify Inhibitors of Platelet Dense Granule Release. [Related pubchem assays: 1663 (Primary HTS), 1678 (Summary of Project)]; format: functional
[11] = biological target: T2, Calpain-2 catalytic subunit (Sus scrofa, UniProt P43367); test: pig calpain II inhibitor potency, dose response, biochemical, fluorogenic peptide substrate (AID 1420); format: functional
T2 sequence (P43367 whole entry): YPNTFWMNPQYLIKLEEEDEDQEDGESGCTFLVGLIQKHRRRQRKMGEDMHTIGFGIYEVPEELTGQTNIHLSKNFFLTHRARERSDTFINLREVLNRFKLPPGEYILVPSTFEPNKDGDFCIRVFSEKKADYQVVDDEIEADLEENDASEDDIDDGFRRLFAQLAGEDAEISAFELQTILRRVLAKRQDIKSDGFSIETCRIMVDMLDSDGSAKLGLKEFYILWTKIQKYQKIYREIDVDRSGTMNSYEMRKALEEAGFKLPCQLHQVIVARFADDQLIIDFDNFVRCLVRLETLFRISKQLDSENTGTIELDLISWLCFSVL

[12] = biological target: T3, Heat shock factor protein 1 (Mus musculus, UniProt P38532); test: HSF1 potentiators in luciferase reporter cells, confirmation, cell-based, NIH3T3, luminescence, dose retest (AID 435004); format: functional;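 further: stress induced by proteasome inhibitor MG132 added 30 min after compound; luciferase reporter driven by HSF1 response element in NIH3T3 cells; actives raise luminescence as potentiators of the MG132 stress response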
T3 sequence (P38532 whole entry): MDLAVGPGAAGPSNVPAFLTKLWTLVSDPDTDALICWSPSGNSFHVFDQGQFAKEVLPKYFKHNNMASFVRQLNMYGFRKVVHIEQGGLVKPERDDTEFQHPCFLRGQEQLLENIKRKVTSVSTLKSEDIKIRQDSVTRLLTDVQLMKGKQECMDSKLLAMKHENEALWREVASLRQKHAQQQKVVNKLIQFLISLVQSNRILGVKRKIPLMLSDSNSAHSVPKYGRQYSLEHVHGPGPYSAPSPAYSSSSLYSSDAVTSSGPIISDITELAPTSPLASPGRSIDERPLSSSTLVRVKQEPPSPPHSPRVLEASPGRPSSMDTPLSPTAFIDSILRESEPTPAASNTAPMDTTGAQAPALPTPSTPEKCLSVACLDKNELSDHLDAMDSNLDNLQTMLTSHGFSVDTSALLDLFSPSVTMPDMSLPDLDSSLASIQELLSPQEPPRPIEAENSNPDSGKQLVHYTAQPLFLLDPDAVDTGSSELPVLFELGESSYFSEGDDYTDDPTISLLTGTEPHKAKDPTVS

[13] = growth suppression of beta-catenin-knockout colon cells, dose response, cell-based, HCT116, human colon tumor (AID 1045); format: functional;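 further: HCT116 colon tumor cells with beta catenin knocked out; cells exposed to compound for 60 hours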
[14] = growth suppression of PTEN-null colon cells, dose response, cell-based, HCT116 PTEN knockout (AID 1047); format: functional;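 further: HCT116 colon tumor cells with PTEN knocked out; cells exposed to compound for 60 hours before readout; potency for loss of cell viability measured by luminescence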
Cytochrome P450 3A4 = Cytochrome P450 3A4 (Homo sapiens, UniProt P08684);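 further: CYP3A4 tested as one member of a cytochrome P450 panel screen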
Cytochrome P450 2C19 = Cytochrome P450 2C19 (Homo sapiens, UniProt P33261); test: Cytochrome panel assay with activity outcomes. Panel member name: p450-cyp2c19 Compounds with AC50 equal or less than 10 uM are considered active; format: functional
[15] = Luminescence Cell-Based Dose Retest to Confirm Inhibitors of Cancer Stem Cells. [Related pubchem assays (depositor defined):AID2717, AID2721]; format: functional; details: Homo sapiens
[16] = control 3'UTR Renilla luciferase suppression, dose response, counter-screen for Shn3 inhibitor project, cell-based, Clone20-Shn3RL, cherry-picked (AID 624133); format: functional
[17] = Shn3 3'UTR reporter inhibitors, dose response, cell-based, Clone20 osteoblasts, firefly luciferase, cherry-picked (AID 624132); format: functional;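 further: firefly luciferase luminescence from reporter carrying the Shn3 3'UTR in osteoblasts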
[18] = inhibitors of intracellular T. cruzi replication, confirmation, NIH3T3 host cells, beta-gal luminescence (AID 2044); format: functional, cell-based;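 further: intracellular parasites grown in NIH/3T3 mouse fibroblasts as host cells; luminescent beta-galactosidase reporter signal from transgenic T. cruzi replicating inside host cells; inhibitors lower the luminescence signal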
[19] = cytotoxicity toward NIH3T3 fibroblasts, dose response, counter-screen, cell-based, ATP luminescence, mouse fibroblasts (AID 2010); format: functional;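 further: cells exposed to compound for about 90 hours before reading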

Sequence of Cytochrome P450 3A4 (P08684 whole entry): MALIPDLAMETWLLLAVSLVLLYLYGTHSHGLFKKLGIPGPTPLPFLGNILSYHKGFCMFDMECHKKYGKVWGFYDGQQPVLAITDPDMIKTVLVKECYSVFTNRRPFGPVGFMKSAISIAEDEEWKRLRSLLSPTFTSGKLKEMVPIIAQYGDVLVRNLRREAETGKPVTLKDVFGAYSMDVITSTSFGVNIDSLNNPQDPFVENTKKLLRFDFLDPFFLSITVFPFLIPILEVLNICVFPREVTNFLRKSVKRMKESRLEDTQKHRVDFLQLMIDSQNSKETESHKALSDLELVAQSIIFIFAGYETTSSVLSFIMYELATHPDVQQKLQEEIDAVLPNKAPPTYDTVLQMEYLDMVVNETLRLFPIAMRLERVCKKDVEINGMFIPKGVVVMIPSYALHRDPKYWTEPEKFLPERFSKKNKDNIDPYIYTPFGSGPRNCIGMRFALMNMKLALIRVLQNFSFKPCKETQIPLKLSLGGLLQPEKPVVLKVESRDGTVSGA
Sequence of Cytochrome P450 2C19 (P33261 whole entry): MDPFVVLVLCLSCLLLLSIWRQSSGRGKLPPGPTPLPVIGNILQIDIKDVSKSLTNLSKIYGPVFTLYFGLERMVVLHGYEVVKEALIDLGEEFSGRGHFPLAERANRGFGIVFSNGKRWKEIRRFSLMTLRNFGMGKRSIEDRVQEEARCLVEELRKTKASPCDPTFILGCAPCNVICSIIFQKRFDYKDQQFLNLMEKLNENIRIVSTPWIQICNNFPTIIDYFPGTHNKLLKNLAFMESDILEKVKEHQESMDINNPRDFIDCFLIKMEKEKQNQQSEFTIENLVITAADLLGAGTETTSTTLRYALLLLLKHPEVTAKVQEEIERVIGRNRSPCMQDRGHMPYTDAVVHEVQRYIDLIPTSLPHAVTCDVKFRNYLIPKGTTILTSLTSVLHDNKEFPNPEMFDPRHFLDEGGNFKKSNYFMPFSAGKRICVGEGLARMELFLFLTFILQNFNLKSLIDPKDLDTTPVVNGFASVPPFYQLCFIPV
Sequence of Luciferin 4-monooxygenase (P08659 whole entry): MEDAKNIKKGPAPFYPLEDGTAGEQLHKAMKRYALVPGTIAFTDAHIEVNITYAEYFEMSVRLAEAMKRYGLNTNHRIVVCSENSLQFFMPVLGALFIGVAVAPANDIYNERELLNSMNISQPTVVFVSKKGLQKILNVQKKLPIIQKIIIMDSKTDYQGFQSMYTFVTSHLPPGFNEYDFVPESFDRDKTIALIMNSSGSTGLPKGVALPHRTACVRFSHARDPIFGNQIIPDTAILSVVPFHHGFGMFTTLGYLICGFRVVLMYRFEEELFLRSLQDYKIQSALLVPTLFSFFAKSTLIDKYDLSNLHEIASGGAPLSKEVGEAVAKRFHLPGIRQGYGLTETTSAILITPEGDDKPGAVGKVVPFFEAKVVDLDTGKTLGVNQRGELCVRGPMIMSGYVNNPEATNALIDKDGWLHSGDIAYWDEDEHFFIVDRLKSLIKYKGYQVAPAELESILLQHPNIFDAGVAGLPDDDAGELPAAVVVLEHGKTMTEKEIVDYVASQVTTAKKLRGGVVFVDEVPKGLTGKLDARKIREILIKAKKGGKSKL

SMILES: O=C(CCc1nc(O)c2ccccc2n1)NNC(=O)c1cccc(Cl)c1
- IC50 (H9c2): > 79 µM (inactive)

SMILES: CCC1=Nc2cc(C(=O)NCCN3CCOCC3)ccc2Sc2ccccc21
- EC50 [1]: > 150 µM (not active)
- EC50 (BJ [2]): > 150 µM (not active)
- EC50 (BJ [3]): > 150 µM (not active)
- EC50 (BJ [4]): > 150 µM (not active)

SMILES: CC(OC(=O)Cn1[nH]c(=O)c2ccccc2c1=O)C(=O)Nc1ccc(F)cc1Cl (stereo not drawn)
- IC50 (H9c2): > 79 µM (inactive)

SMILES: COc1ccc(-c2cc(=O)oc3cc(OCC(=O)N(C)C)ccc23)cc1
- IC50 (Protein skinhead-1): > 100 µM (inactive)

SMILES: Cn1c(-c2ccc(Cl)cc2)cnc1N
- IC50 (H9c2): > 79 µM (inactive)

SMILES: Cn1c(-n2c(CCCN3C(=O)c4ccccc4C3=O)nc3ccccc3c2=O)nc2ccccc21
- IC50 (H9c2): 15.3 µM (active)

SMILES: Clc1ccc(Cn2cc(/C=N/n3cnnc3)c3ccccc32)cc1
- EC50 [5]: 13.1 µM (active)
- EC50 [6]: > 120 µM (not active)
- EC50 [7]: 14.6 µM (active)

SMILES: O=C(Nc1ccc(F)cc1)C1CCN(c2ncnc3c2nc2n3CCCCC2)CC1
- EC50 [5]: 15.8 µM (active)
- EC50 [6]: 16.9 µM (active)
- EC50 [7]: 17 µM (active)

SMILES: O=[N+]([O-])c1ccc(N=Nc2c(Cl)cc(O)cc2Cl)cc1
- EC50 [1]: 4.74 µM (active)
- EC50 (BJ [2]): 5.98 µM (active)
- EC50 (BJ [3]): 5.78 µM (active)
- AC50 [8]: 0.574 µM (active)
- EC50 [9]: 137 nM (active)
- AC50 (INS1): 1.73 µM (active)
- EC50 (BJ [4]): 4.44 µM (active)
- EC50 [10]: 1.98 µM (active)

SMILES: COc1cccc(C(=O)Nc2cccc(-c3nnc(-c4ccco4)o3)c2)c1
- IC50 [11]: > 50 µM (not active)
- IC50 (H9c2): 28.2 µM (active)

SMILES: C/C(=N\NC(=O)CC1N=C(Cc2ccccc2)NNC1=O)c1ccc(C)cc1 (stereo not drawn)
- EC50 [1]: 44.3 µM (active)
- EC50 (BJ [2]): > 150 µM (not active)
- EC50 (BJ [3]): > 150 µM (inconclusive)
- EC50 (BJ [4]): > 150 µM (not active)
- EC50 [12]: > 260 µM (inactive)

SMILES: Cc1nn(-c2ccccc2)c(N2CCCC2)c1/C=N/NC(=O)c1cc(-c2ccccn2)nc2ccccc12
- IC50 (H9c2): > 79 µM (inactive)

SMILES: O=C1/C(=C/c2ccccc2)CCCc2ccccc21
- IC50 (Protein skinhead-1): 17.9 µM (active)

SMILES: O=C1/C(=C/c2cccnc2)CCC/C1=C\c1cccnc1
- EC50 [13]: 1.09 µM (active)
- AC50 (INS1): 3.04 µM (active)
- EC50 [14]: 1.43 µM (active)

SMILES: CC(=C/c1ccccc1)/C=N/n1cnnc1
- EC50 [5]: 13.5 µM (active)
- EC50 [6]: 20.4 µM (active)
- EC50 [7]: 11 µM (active)

SMILES: COc1ccc(Cc2nnc(O)c3ccccc23)cc1OC
- IC50 (H9c2): 7.28 µM (active)
- AC50 (Cytochrome P450 3A4): 22.4 µM (inconclusive)
- AC50 (Cytochrome P450 2C19): 31.6 µM (inconclusive)

SMILES: Cc1cc(S(=O)(=O)NCc2ccccc2)ccc1OCC(=O)Nc1cccc([N+](=O)[O-])c1
- EC50 [13]: 14.9 µM (active)
- EC50 [14]: 13 µM (active)

SMILES: COc1ccc(-c2csc(/C(C#N)=C/Nc3cc4oc5ccccc5c4cc3OC)n2)cc1
- EC50 [5]: > 120 µM (not active)
- EC50 [6]: 91.7 µM (active)
- EC50 [7]: > 120 µM (not active)

SMILES: C=Cn1ccnc1P(=S)(c1ccc2c(c1)c1ccccc1n2CC)c1nccn1C=C
- AC50 [15]: 1.5 µM (active)
- EC50 [13]: 4.28 µM (active)
- EC50 [14]: 4.12 µM (active)

SMILES: Cc1cccc(Nc2nc(N)c([N+](=O)[O-])c(N3CC(C)CC(C)C3)n2)c1 (stereo not drawn)
- AC50 [15]: 6.36 µM (active)
- AC50 [8]: 7.38 µM (active)
- EC50 [13]: 15.1 µM (active)
- AC50 (INS1): 8.89 µM (active)
- EC50 [14]: 13.1 µM (active)

SMILES: Cc1cccc(-[n+]2c(-c3cccc(Br)c3)[nH]c3nc4ccccc4nc32)c1
- EC50 [5]: 10.5 µM (active)
- EC50 [6]: 13.7 µM (active)
- EC50 [7]: 13.2 µM (active)

SMILES: Nc1nnc(SCC(=O)N2CCN(c3cccc(Cl)c3)CC2)n1-c1ccccc1
- IC50 (Protein skinhead-1): > 100 µM (inactive)

SMILES: CC(=O)Nc1ccc(S(=O)(=O)NCc2ccc3c(c2)cc(C)n3C)cc1
- IC50 (Protein skinhead-1): > 100 µM (inactive)

SMILES: O=C(CN1CCCC1)Nc1sc2c(c1C(=O)Nc1ccc(Br)cc1)CCC2
- IC50 (Protein skinhead-1): > 100 µM (inactive)

SMILES: CN(CCCN1CCOCC1)C(=O)c1cc(COc2cccc(C(F)(F)F)c2)on1
- IC50 (Protein skinhead-1): > 100 µM (inactive)

SMILES: Cc1ccc2nc(NC(=O)/C=C/c3ccc4c(c3)OCO4)sc2c1
- EC50 [13]: 4.66 µM (active)
- AC50 (INS1): 3.6 µM (active)
- EC50 [14]: 4.16 µM (active)

SMILES: CCOC(=O)N1CCN(C(=O)CSc2nc(O)c3cnn(-c4ccc(C)cc4)c3n2)CC1
- IC50 (H9c2): 31.6 µM (inactive)

SMILES: O=C1Nc2ccccc2/C1=C1\SC(=S)N(Cc2ccccc2Cl)C1=O
- EC50 [1]: 23 µM (active)
- EC50 (BJ [2]): 10.8 µM (inconclusive)
- EC50 (BJ [3]): > 75 µM (inconclusive)
- EC50 (BJ [4]): > 150 µM (not active)

SMILES: Cc1ccc(C)c(Nc2nc3ccc(C)cc3n3cnnc23)c1
- EC50 [5]: > 120 µM (not active)
- EC50 [6]: > 120 µM (not active)
- EC50 [7]: 14.9 µM (active)

SMILES: Fc1ccc(CSc2ccc3nnc(-c4cccnc4)n3n2)cc1
- IC50 (H9c2): > 79 µM (inactive)

SMILES: S=C(Nc1ccccc1)Nc1ccc(OCc2ccc(Cl)cc2Cl)cc1
- AC50 [16]: 406 nM (active)
- AC50 [17]: 405 nM (active)

SMILES: COc1cccc(-c2noc(-c3ccoc3C)n2)c1
- IC50 (Protein skinhead-1): 86.4 µM (inactive)

SMILES: O=C(Nc1ccc2c(c1)CN(Cc1ccco1)CC2)C1CCCO1 (stereo not drawn)
- IC50 (Protein skinhead-1): > 100 µM (inactive)

SMILES: COc1ccc(C2=Nn3c(nnc3-c3ccccc3)SC2)cc1OC
- EC50 [5]: 0.318 µM (active)
- EC50 [6]: > 120 µM (not active)
- EC50 [7]: 54.9 µM (active)

SMILES: CCOc1cc(CNCCSc2nnnn2C)cc(Br)c1OCc1ccccc1F
- EC50 [18]: 2.13 µM (active)
- IC50 (Protein skinhead-1): 24.1 µM (active)
- EC50 [19]: > 60 µM (not active)
